Laboratory results reported in EP1228058B1, “BENZOPYRANYL GUANIDINE DERIVATIVES, PROCESS FOR PREPARATION THEREOF, AND PHARMACEUTICAL COMPOSITIONS CONTAINING THEM” (Dongbu Hannong Chemical Co., Ltd., priority 1999, dated 2001).

Tests used:
A7r5 [1] = test: Inhibition of A7r5 mediated LDL oxidation (MDA); assay type: cell-based, rat; settings: for % Inhibition LDL + H2O2 (10^-7M): A7r5 plus H2O2 (10^-7 M); for % Inhibition LDL: A7r5 alone, LDL 100 ug/ml, 24 hr
Description: A7r5 (ATCC CRL-1444, smooth muscles, thoracic aorta, BDIX rat) cells were cultured in 24 well plates, using the medium of DMEM (Dulbecco's modified Eagle's Medium) supplemented with 10% heat-inactivated FBS (fetal bovine serum) and 1% antibiotics. Confluent A7r5 from plates were washed with phosphate-buffered solution, and DMEM with 10% FBS and 1% antibiotics was added in a total volume of 0.5 ml/well. Cells (2 x 10^5 cells/ml) were preincubated without and with either test compounds (10^-6 - 10^-4 M) or Tocopherol (10^-6 - 10^-4 M) at 37 °C for 30 min. Then, A7r5 alone or A7r5 plus H2O2 (10^-7 M) were exposed to LDL (100 ug/ml) for 24 hr.
The inhibitory effect of the test compounds against the lipid peroxidation was evaluated by calculating MDA reduction rate of the test compounds compared with that of the control group same as the above example 5 (2).

[2] = ORAC (oxygen-radical absorbance capacity) assay; assay type: biochemical; settings: 1 ORAC unit = net protection by 1 uM Trolox
Description: The method utilized β-PE (β-phycoerythrin) as an indicator protein, and AAPH (2,2'-azobis(2-amidinopropane) dihydrochloride) as a peroxy radical generator. Reaction mixtures consisted of test compounds (10^-6M and 10^-4M), β-PE (1.76 x 10^-8M), and AAPH (3 x 10^-3 M) in 75 mM phosphate buffer (pH 7.0). A final volume of 2 ml was used in 24 well plates. Test compounds were first dissolved in acetone and then added to the reaction mixture. Once AAPH was added, the reaction was initiated at 37 °C and the fluorescence (485 nm excitation, 590 nm emission) was measured every 5 min using Fluorescence reader (FL600, Biotek Instrument). The ORAC units were calculated based on the area under the fluorescence curve of β-PE in the presence of the test compound compared to the area generated by 1 uM Trolox. 1 ORAC unit represents the net protection provided by 1 uM Trolox.

HUVEC = test: Inhibition of intracellular ROS induced by H2O2 (H2DCFDA) in HUVEC; assay type: cell-based, Human
Description: (§1) Measurement of intracellular ROS (Reactive Oxygen Species) was determined using H2DCFDA (2',7'-dichlorodihydrofluorescein diacetate, Molecular Probes, Eugene, OR, USA). H2DCFDA is a non-polar compound that readily diffused into cells, where it is hydrolyzed by intracellular esterase to polar derivative H2DCF (2',7'-dichlorodihydrofluorescein) which can not cross the cell membrane, and thereby trapped within the cell. H2DCF is low-fluorescent, but converted to high-fluorescent DCF (2',7'-dichlorofluorescein) by intracellular ROS. Therefore, the intracellular ROS formation can be determined from the amount of converted DCF. HUVEC (Human umbilical Vascular Endothelial Cells) or A7r5 (Rat thoracic aorta smooth muscle cells) were used. HUVEC were cultured in Kaighn's F12K medium supplemented with 10% heat-inactivated FBS, 0.1 mg/ml heparin sodium, 0.03-0.05 mg/ml ECGS (Endothelial cell growth supplement) and 1% antibiotics, and A7r5 were cultured in DMEM supplemented with 10% heat inactivated FBS and 1% antibiotics. To measure the intracellular ROS, HUVEC or A7r5 were preincubated for 30 min in the presence of test compounds (10^-7-10^-5 M). Thereafter, cells were stimulated with H2O2 (10^-6 and 10^-5 M for 20 min), and then incubated in the dark for 2 hr at 37 °C in 50 mM phosphate buffer (pH 7.4) containing 5 uM H2DCFDA. The quantity of DCF fluorescence (485 nm excitation, 530 nm emission) was measured using Fluorescence plate reader (FL600, Biotek Instruments).

Human LDL = test: Inhibition of copper-induced LDL oxidation (MDA, TBA method); assay type: biochemical; settings: CuSO4 10 uM, 18 hr
Description: Human LDL (sigma) was dissolved in distilled water at a concentration of 1 mg/ml. LDL was dialyzed against three changes of phosphate-buffered solution before oxidation to remove EDTA (ethylenediamine tetraacetate) at 4 °C for 18 hr. EDTA-free LDL (100 ug LDL protein/ml) was incubated in EDTA-free phosphate-buffered solution at 37 °C for 18 hr in the presence of CuSO4 (10 uM) under pretreatment with the test compounds or tochopherol of which final concentrations were 10^-9, 10^-7, and 10^-5 M. Blank was incubated without CuSO^., and vehicle was used as a solvent group. Oxidation was stopped at 4 °C by addition of EDTA (200 uM).
Copper (Cu^+2) facilitates the oxidation of LDL to produce malondialdehyde (MDA), thus the lipid peroxidation was determined by MDA quantification same as the above example 5 (1). The MDA quantification was estimated by reacting samples with 2-thiobarbituric acid (TBA) and measuring the absorbance at 530 nm. 1,1,3,3-Tetramethoxy propane (Sigma) was used as a standard agent, and calculated the quantity of MDA as nmol of MDA equivalents per mg protein. The inhibitory effect of the test compounds against the lipid peroxidation was evaluated by calculating MDA reduction rate of the test compounds compared with that of the control group.

A7r5 [3] = test: Inhibition of intracellular ROS induced by H2O2 (H2DCFDA) in A7r5; assay type: cell-based; settings: Rattus norvegicus
Description: as §1

[4] = tested on: angiogenesis induced by Angiotensin II in Sprague-Dawley rats; test: Suppression of Angiotensin II induced angiogenesis in implanted sponge (99mTc-DTPA clearance); assay type: in vivo; settings: Control AII (100nmol) alone, no test drug
diabetic rats [5] = test: Effects on MNCV (motor nerve conduction velocity) in diabetic rats; assay type: in vivo; settings: MNCV; 100 mg/Kg, orally once a day, diabetic rats
Description: Diabetes was induced with i.p. (intra peritoneum) injection of streptozocin (65 mg/Kg) in rats, then test compounds dissolved in 2 ml of media (physiological saline: ethanol: tween 80 = 8:1:1), were orally administered once a day. Rats were anesthetized with halothane, then the sciatic nerve was exposed to measure MNCV. The nerve was stimulated at two points. The first stimulus electrode was inserted at proximal end, and second stimulating electrode was inserted at the sciatic notch. The coaxial needle electrode was inserted into interdigital muscle, then the muscle action potential induced by two point stimulation. The conduction velocity was calculated by dividing the distance between two stimulus points by the latency difference. Lipoic acid (100 mg/Kg) was used in comparison with the compound of formula 1 in recovery of impaired MNCV in diabetic rats. The recovery (%) of MNCV was calculated according to the following mathematical formula 4. [Mathematical formula 4] Recovery(%) =(MNCV of treated group - MNCV of diabetic rats)/(MNCV of normal control-MNCV of diabetic rats)x100 [formula]

diabetic rats [6] = test: Nociceptive test (hot plate test) in diabetic rats; assay type: in vivo; settings: 50 °C hot plate
Description: Effects on nociceptive responses of test compounds in rats were examined using hot plate. The same methods were applied for the induction of diabetes and treatment of test compound in rats. Rats were placed onto 50 °C hot plate, then latencies of nociceptive action such as licking were determined. The recovery (%) of nociceptive responses in diabetic rats was calculated according to the following mathematical […]. [Mathematical formula 5] Recovery(%) =(Response in treated group - Response in diabetic control)/(Response in normal control-Response in diabetic control)x100 [formula]

Which “% Inhibition LDL + H2O2 (10^-7M)” value (A7r5 [1]; 10^-4 M) does the source give for Tocopherol [reference compound] here?
Its value is 63.9%.

And the “% Inhibition LDL” value (A7r5 [1]; 10^-5 M)?
Its value is 57.0%.

And the “% Inhibition LDL + H2O2 (10^-7M)” value (A7r5 [1]; 10^-5 M)?
The value was 53.0%.

What about the “% Inhibition LDL” value (A7r5 [1]; 10^-6 M) of the same compound?
The value was 41.1%.

What about the “% Inhibition LDL + H2O2 (10^-7M)” value (A7r5 [1]; 10^-6 M) of the same compound?
Its value is 43.2%.

And the ORAC units ([2]; Conc. 10^-4 M)?
The ORAC units was 1.568 ORAC units.

And the ORAC units ([2]; Conc. 10^-6 M)?
The ORAC units was 1.0 ORAC units.

What about the “Inhibition (%) H2O2 (10^-5M)” value (HUVEC; Conc. 10^-5 M) of the same compound?
Its value is 51.0%.

What about the “Inhibition (%) H2O2 (10^-6M)” value (HUVEC; Conc. 10^-5 M) of the same compound?
Its value is 60.8%.

And the “Inhibition (%) H2O2 (10^-5M)” value (HUVEC; Conc. 10^-6 M)?
Its value is 30.7%.

What about the “Inhibition (%) H2O2 (10^-6M)” value (HUVEC; Conc. 10^-6 M) of the same compound?
Its value is 43.2%.

What about the “Inhibition (%) H2O2 (10^-5M)” value (HUVEC; Conc. 10^-7 M) of the same compound?
Its value is 8.8%.

What about the “Inhibition (%) H2O2 (10^-6M)” value (HUVEC; Conc. 10^-7 M) of the same compound?
The value was 13.8%.

And the “% Inhibition” value (Human LDL; 10^-5 M)?
The value was 29.7%.

What about the “% Inhibition” value (Human LDL; 10^-7 M, 0.1 µM) of the same compound?
The value was 21.3%.

And the “% Inhibition” value (Human LDL; 10^-9 M, 0.001 µM)?
Its value is 18.5%.

With `CC(C)(Sc1cc(C(C)(C)C)c(O)c(C(C)(C)C)c1)Sc1cc(C(C)(C)C)c(O)c(C(C)(C)C)c1` [Probucol, reference compound] as the compound, how does the inhibition at 10 µM (A7r5 [3]; A7r5, Conc. 10^-5 M, read-out: Inhibition (%) H2O2 (10^-6M)) read?
The inhibition at 10 µM was 185%.

What about the inhibition at 1 µM (A7r5 [3]; A7r5, Conc. 10^-6 M) of the same compound?
Its inhibition at 1 µM is 184%.

What about the inhibition at 0.1 µM (A7r5 [3]; A7r5, Conc. 10^-7 M, read-out: Inhibition (%) H2O2 (10^-6M)) of the same compound?
The inhibition at 0.1 µM was 72%.

For “Angiotensin II [AII, reference compound]”, which “Clearance of ^99mTC (%)” value [4] is on record?
The value was 44.71%.

For `O=C(O)CCCCC1CCSS1` (centres unmarked) [Lipoic acid, reference compound], which “Recovery (%)” value (diabetic rats [5]) is on record?
The value was 136.6%.

What about the “Nociceptive response” value (diabetic rats [6]; latency of licking) of the same compound?
Its value is 4.371 s.

What about the “Recovery (%)” value (diabetic rats [6]; nociceptive responses) of the same compound?
The value was 60.2%.
